Measured values as given in US20230141403A1 (Hoffmann-La Roche Inc., priority 2020, published 2023).
Counter-ions that a name gives are not always drawn.

test system: Acinetobacter baumannii ATCC17961; assay: Antimicrobial susceptibility testing: 90% growth inhibitory concentration (IC90) determination; assay type: cell-based; details: Acinetobacter baumannii, ATCC17961, 16 h, 90% growth inhibitory concentration; Iso-Sensitest broth, optical density at 600 nm over 16h, 35±2° C.; read-out: AB ATCC 17961 IC90
Method: Antimicrobial Susceptibility Testing:
90% Growth Inhibitory Concentration (IC90) Determination
The in vitro antimicrobial activity of the compounds was determined according to the following procedure:
The assay used a 10-points Iso-Sensitest broth medium to measure quantitatively the in vitro activity of the compounds against Acinetobacter baumannii ATCC17961 or ATCC17978.
Stock compounds in DMSO were serially twofold diluted (e.g. range from 50 to 0.097 μM final concentration) in 384 wells microtiter plates and inoculated with 49 μl the bacterial suspension in Iso-Sensitest medium to have a final cell concentration of ˜5×10^(5) CFU/ml in a final volume/well of 50 ul/well. Microtiter plates were incubated at 35±2° C.
Bacterial cell growth was determined with the measurement of optical density at λ=600 nm each 20 minutes over a time course of 16h. Growth inhibition was calculated during the logarithmic growth of the bacterial cells with determination of the concentration inhibiting 50% (IC50) and 90% (IC90) of the growth.
Table 2 provides the 90% growth inhibitory concentrations (IC90) in micromoles per liter of the compounds of present invention obtained against the strain Acinetobacter baumannii ATCC17961.

IC90 [µM]	Compound
0.37	COc1ccc(-c2cnc3c(Nc4ccc(N5CCC(CN)CC5)c(C)c4)nccn23)c(F)c1F [Example 113, N-(4-(4-(aminomethyl)piperidin-1-yl)-3-methylphenyl)-3-(2,3-difluoro-4-methoxyphenyl) imidazo [1,2-a]pyrazin-8-amine hydrochloride]
0.078	COc1ccc(-c2cnc3c(Nc4ccc(S(=O)(=O)NCCOCCN)c(Cl)c4)nccn23)c(F)c1F [Example 101, N-(2-(2-aminoethoxy)ethyl)-2-chloro-4-((3-(2,3-difluoro-4-methoxyphenyl)imidazo[1,2-a]pyrazin-8-yl)amino) benzenesulfonamide hydrochloride]

More lines, now with the values behind:

Compound	IC90 [µM]
COc1ccc(-c2cnc3c(Nc4ccc(S(C)(=O)=NCCCNC(=O)[C@@H]5C[C@@H](O)CN5)cc4)nccn23)c(F)c1F (mixture of isomers) [Example 33, rac-(2R,4S)-N-(3-(((4-((3-(2,3-difluoro-4-methoxyphenyl)imidazo[1,2-a]pyrazin-8-yl)amino)phenyl) (methyl)(oxo)-16-sulfaneylidene)amino)propyl)-4-hydroxypyrrolidine-2-carboxamide dihydrochloride]	0.49
COc1ccc(-c2cnc3c(Nc4ccc(NC(=O)CN5CCNCC5)c(C)c4)nccn23)cc1 [Example 37, N-(4-((3-(4-methoxyphenyl)imidazo[1,2-a]pyrazin-8-yl)amino)-2-methylphenyl)-2-(piperazin-1-yl)acetamide]	0.21
COc1ccc(-c2cnc3c(Nc4ccc([S@@](C)(=O)=NCCCNC(=O)[C@@H]5C[C@@H](O)CN5)c(C)c4)nccn23)c(F)c1F [Example 30, (2S,4R)-N-(3-(((+)-(4-((3-(2,3-difluoro-4-methoxyphenyl)imidazo[1,2-a]pyrazin-8-yl)amino)-2-methylphenyl) (methyl)(oxo)-16-sulfaneylidene)amino)propyl)-4-hydroxypyrrolidine-2-carboxamide dihydrochloride]	0.13
CN=S(=O)(CCCN)c1ccc(Nc2nccn3c(-c4ccc(OC)c(F)c4F)cnc23)cc1C (stereo not shown) [Example 72, N-(4-(3-amino-N-methylpropylsulfonimidoyl)-3-methylphenyl)-3-(2,3-difluoro-4-methoxyphenyl)imidazo[1,2-a]pyrazin-8-amine]	0.12

same assay, conditions: Acinetobacter baumannii, ATCC17961, 16 h, read-out: AB ATCC 17961 IC90 (uM)

Compound	IC90 [µM]
COc1ccc(-c2cnc3c(Nc4ccc(S(C)(=O)=NCCCN)c(C)c4)nccn23)c(F)c1F (stereo not shown) [Example 67, N-[4-[N-(3-aminopropyl)-S-methyl-sulfonimidoyl]-3-methyl-phenyl]-3-(2,3-difluoro-4-methoxy-phenyl)imidazo[1,2-a]pyrazin-8-amine; formic acid]	0.12
